Experiments:
[1] = biological target: T1, His-HAO1 (recombinant glycolate oxidase, 2-hydroxyacid oxidase) (Homo sapiens, UniProt Q9UJM8); assay: DSF thermal stabilisation, SYPRO Orange; format: binding
T1 sequence (Q9UJM8 1-370): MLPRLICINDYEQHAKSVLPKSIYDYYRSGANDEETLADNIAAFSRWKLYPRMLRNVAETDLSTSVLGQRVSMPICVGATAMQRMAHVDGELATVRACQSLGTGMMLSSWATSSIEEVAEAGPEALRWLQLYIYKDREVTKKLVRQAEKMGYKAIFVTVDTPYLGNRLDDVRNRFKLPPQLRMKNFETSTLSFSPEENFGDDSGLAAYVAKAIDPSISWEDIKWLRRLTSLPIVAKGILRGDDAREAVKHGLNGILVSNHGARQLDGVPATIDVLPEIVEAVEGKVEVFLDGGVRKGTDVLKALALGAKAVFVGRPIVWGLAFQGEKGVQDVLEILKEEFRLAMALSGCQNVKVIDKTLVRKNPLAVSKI

HAO1-HiBiT = biological target: T2, HAO1-HiBiT (Homo sapiens, UniProt Q9UJM8); assay: SplitLuc CETSA in HEK293T lysate, LgBiT luminescence; format: biochemical
T2 sequence (Q9UJM8 1-370): T1 sequence (Q9UJM8 1-370)

[2] = biological target: T1, His-HAO1 (recombinant glycolate oxidase, 2-hydroxyacid oxidase); assay: Amplex Red activity assay; format: biochemical
[3] = biological target: T1, His-HAO1 (recombinant glycolate oxidase, 2-hydroxyacid oxidase); assay: SPR; format: binding

With NS(=O)(=O)c1ccc(Cc2c(-c3ccc(F)c(-c4ccc(Oc5nn[nH]c5C(=O)O)cc4)c3)nn(-c3nc(C(=O)O)cs3)c2CC2CC2)cc1F [compound 1, Compound 1] the EC50 [1] was 5010 nM, the EC50 (HAO1-HiBiT) was 2200 nM and the IC50 [2] was 25.1 nM. The Kd [3] was 3.9 nM.

Molecule O=C(O)c1nn[nH]c1Oc1ccc(-c2ccc(C3CC(F)(F)C3)cc2)cc1 [compound 2, Compound 2] has an EC50 [1] of 3980 nM, an EC50 (HAO1-HiBiT) of 1800 nM and an IC50 [2] of 20 nM. It also gave a Kd [3] of 4.4 nM.

— doi:10.1101/2024.06.26.600887v2 (biorxiv, 2024)
